Assay results reported in US10759803B2, “Asparagine endopeptidase (AEP) inhibitors for managing cancer and compositions related thereto” (priority 2014, dated 2020).

Columns and labels:
[1] = target: T1, AEP (Homo sapiens, UniProt Q99538); assay: IC50 assay with purified recombinant AEP; type: biochemical; conditions: purified active AEP; read-out: IC50 toward AEP
T1 construct: tested with purified active AEP, IC50 values for the top 8 candidates were found
T1 sequence (Q99538 18-323 limits assumed): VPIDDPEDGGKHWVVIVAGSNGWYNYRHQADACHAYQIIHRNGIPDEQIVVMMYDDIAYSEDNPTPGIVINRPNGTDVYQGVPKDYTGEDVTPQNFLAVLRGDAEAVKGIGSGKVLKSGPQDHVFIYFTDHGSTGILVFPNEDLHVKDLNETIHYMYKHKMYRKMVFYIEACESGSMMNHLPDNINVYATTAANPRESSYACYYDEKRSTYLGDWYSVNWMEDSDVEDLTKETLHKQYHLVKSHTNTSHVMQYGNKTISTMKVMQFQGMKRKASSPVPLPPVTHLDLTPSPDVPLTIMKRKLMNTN
Protocol: (§1) Purified recombinant enzyme was incubated with various concentrations of inhibitor in appropriate assay buffers in the presence of increasing concentrations of inhibitor. The formation of fluorescent product was monitored in duplicate reactions and the data was fit to appropriate equations to calculate the IC50 values.
(§2) To identify small-molecule inhibitors of AEP, a high-throughput screen was designed in conjunction with the Emory Chemical Biology Discovery Center. The screen incorporated mouse kidney lysates to assay a 54,384 compound library. […] Additional structural analysis and grouping allowed the compounds to be sorted into 8 distinct backbone families. […] The specificity of the compounds was also determined using four major cysteine proteases (FIG. 2).
Various concentrations of the appropriate compound were incubated with AEP reaction buffer (50 mM Sodium Citrate pH 5.5, 0.1% CHAPS, 60 mM Na2HPO4, 1 mM EDTA, final pH 6.0) and peptide substrate, 10 μM Cbz-Ala-Ala-Asn-AMC (Bachem). The reaction was initiated upon addition of 50 nM AEP and fluorescent product formation was monitored over 15 min. […] Data were analyzed with GraFit version 5.0.11 software package.

[2] = target: Cathepsin-L (Homo sapiens, UniProt P07711); assay: Specificity assay against Cathepsin-L; type: biochemical
[3] = target: Cathepsin-S (Homo sapiens, UniProt P25774); assay: Specificity assay against Cathepsin-S; type: biochemical
Protocol: as §1, §2

[4] = target: T2, Caspase-3 (Homo sapiens, UniProt P42574); assay: Specificity assay against Caspase-3; type: biochemical
T2 sequence (P42574 29-175 limits assumed): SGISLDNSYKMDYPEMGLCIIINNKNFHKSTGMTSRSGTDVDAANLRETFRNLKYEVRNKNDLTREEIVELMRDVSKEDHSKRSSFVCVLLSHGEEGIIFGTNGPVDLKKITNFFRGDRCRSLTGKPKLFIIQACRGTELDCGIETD
T2 sequence (P42574 176-277 limits assumed): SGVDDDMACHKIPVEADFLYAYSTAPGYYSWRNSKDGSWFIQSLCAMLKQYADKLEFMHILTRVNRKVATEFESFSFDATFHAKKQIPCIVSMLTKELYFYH
Protocol: as §1, §2

[5] = target: Caspase-8 (Homo sapiens, UniProt Q14790); assay: Specificity assay against Caspase-8; type: biochemical
Protocol: as §1, §2

[6] = target: CYP3A4 (Homo sapiens, UniProt P08684); assay: CYP inhibition screening, CYP3A4-Midazolam; type: in vitro ADME
[7] = system: CYP3A; assay: CYP inhibition screening, CYP3A-Testosterone; type: in vitro ADME
[8] = target: CYP2C9 (Homo sapiens, UniProt P11712); assay: CYP inhibition screening, CYP2C9; type: in vitro ADME
[9] = target: CYP2D6 (Homo sapiens, UniProt P10635); assay: CYP inhibition screening, CYP2D6; type: in vitro ADME
[10] = target: CYP2C19 (Homo sapiens, UniProt P33261); assay: CYP inhibition screening, CYP2C19; type: in vitro ADME
[11] = target: T3, CYP1A2 (Homo sapiens, UniProt P05177); assay: CYP inhibition screening, CYP1A2; type: in vitro ADME
T3 sequence (P05177 1-516): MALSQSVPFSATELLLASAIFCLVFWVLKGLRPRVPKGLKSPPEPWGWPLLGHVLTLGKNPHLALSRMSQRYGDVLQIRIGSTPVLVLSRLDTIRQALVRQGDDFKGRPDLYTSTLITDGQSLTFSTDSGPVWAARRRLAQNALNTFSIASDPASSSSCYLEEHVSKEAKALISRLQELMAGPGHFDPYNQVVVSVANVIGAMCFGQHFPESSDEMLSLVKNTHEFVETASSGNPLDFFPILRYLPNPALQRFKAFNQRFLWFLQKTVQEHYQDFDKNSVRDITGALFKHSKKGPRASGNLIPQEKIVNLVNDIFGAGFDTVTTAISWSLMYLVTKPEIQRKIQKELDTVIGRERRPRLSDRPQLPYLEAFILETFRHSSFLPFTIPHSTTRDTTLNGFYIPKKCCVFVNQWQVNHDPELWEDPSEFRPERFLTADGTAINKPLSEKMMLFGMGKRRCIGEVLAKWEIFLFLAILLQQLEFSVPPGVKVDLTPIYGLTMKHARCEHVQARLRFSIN

[12] = system: amyloid precursor protein (APP) cleavage; assay: APP cleavage in OGD-treated primary cortical neurons; type: cell-based; conditions: 0.1 μM compound
Protocol: A. AEP activity, measured in primary neuronal cultures with 5 μM Cbz-Ala-Ala-Asn-AMC (x-axis denotes neurons were treated with 0.1 μM or 1.0 μM specified compound). B. Caspase activity, measured in primary neuronal cultures with 5 μM Ac-Asp-Glu-Val-Asp-AMC. C. Cathepsin activity, measured in primary neuronal cultures with 5 μM D-Val-Leu-Lys-AMC. D. Inhibition of APP cleavage. Lysates of primary cortical neurons pre-incubated with compounds for 30 min, underwent OGD for 4 hrs, were reperfused for 18 hrs (normoxia neurons remained at normoxic conditions). E. APP can be cleaved in a dose-dependent manner. Lysates of primary cortical neurons pre-incubated with compounds for 30 min, underwent OGD for 4 hrs, were reperfused for 18 hrs (normoxia neurons remained at normoxic conditions).
Depriving cells of oxygen and glucose is a cellular model that is employed to trigger acidosis in cultured cells. The efficacy of the compounds in a cellular model of oxygen-glucose deprivation (OGD) was determined in an effort to mimic the effects of stroke in primary cultured neurons. As a result of depriving neurons of oxygen and glucose-containing medium, AEP activity was doubled (FIG. 7A, ‘DMSO-Norm’ compared to ‘DMSO-OGD’), while Caspase-3 and Cathepsin activities remained relatively unchanged. […] Cleavage of APP is observed in response to only DMSO treatment (FIG. 7D, lane 2), and it appears that upon the treatment of 1 μM of compounds 10, 11, and 12, and just 0.1 μM of compound s31, 38 and 64, the cleavage was blocked, presumably due to AEP inhibition.

[13] = system: Caco-2 monolayer; assay: Caco-2 monolayer permeability screen; conditions: Table 1
Protocol: To explore the in vitro ADME profiles of the compounds, additional tests were conducted.

CYP2C9, sequence (P11712 whole entry): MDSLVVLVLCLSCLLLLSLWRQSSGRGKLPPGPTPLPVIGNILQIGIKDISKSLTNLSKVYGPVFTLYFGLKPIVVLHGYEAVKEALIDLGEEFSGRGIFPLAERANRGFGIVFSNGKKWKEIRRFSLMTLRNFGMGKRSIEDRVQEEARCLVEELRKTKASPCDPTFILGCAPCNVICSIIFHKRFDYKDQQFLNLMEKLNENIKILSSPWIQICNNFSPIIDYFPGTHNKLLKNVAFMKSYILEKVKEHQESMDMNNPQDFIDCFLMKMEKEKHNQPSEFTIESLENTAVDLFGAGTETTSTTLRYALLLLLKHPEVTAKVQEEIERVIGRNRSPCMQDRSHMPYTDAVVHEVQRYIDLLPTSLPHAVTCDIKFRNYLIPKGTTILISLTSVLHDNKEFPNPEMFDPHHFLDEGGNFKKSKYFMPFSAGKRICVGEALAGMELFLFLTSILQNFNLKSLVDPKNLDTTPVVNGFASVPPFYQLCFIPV
CYP3A4, sequence (P08684 whole entry): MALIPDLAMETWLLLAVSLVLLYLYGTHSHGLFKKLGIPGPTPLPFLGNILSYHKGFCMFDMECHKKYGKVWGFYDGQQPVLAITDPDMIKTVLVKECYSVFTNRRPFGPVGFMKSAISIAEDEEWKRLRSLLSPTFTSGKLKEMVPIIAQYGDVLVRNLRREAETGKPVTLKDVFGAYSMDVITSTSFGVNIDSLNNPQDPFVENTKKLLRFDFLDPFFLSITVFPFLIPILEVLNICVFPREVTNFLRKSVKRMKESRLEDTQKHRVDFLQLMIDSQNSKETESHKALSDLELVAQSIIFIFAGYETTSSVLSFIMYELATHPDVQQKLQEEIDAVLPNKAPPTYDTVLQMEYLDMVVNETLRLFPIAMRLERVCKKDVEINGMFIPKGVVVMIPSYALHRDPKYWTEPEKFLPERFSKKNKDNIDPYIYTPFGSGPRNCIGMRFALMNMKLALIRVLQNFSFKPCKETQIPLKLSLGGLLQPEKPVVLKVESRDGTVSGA
CYP2C19, sequence (P33261 whole entry): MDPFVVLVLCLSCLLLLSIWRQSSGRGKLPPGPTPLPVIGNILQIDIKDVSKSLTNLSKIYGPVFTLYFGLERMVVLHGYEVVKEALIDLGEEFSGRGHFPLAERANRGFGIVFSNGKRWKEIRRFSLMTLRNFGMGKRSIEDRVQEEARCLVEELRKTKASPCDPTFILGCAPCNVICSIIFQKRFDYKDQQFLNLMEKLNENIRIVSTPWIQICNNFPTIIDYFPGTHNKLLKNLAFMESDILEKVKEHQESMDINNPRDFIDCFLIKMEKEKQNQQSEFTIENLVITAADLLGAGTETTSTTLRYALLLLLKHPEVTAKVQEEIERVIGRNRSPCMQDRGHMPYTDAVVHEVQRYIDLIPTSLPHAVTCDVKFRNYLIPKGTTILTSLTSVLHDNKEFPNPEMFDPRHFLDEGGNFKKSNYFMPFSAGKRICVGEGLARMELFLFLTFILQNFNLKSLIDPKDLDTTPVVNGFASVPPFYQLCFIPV
CYP2D6, sequence (P10635 whole entry): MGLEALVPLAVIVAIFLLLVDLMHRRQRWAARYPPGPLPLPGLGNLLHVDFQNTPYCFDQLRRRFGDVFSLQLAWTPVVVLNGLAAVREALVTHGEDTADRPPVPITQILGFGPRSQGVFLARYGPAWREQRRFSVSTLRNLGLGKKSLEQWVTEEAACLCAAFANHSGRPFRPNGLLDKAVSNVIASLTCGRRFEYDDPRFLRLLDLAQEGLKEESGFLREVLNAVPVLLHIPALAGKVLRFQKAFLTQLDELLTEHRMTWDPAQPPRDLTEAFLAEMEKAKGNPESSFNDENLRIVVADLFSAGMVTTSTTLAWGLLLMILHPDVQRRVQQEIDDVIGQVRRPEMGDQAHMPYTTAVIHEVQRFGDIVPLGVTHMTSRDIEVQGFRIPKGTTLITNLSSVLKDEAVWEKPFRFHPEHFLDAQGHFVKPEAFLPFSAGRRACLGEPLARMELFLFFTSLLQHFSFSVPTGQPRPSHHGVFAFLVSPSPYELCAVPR
Caspase-8, sequence (Q14790 217-374 limits assumed, species assumed): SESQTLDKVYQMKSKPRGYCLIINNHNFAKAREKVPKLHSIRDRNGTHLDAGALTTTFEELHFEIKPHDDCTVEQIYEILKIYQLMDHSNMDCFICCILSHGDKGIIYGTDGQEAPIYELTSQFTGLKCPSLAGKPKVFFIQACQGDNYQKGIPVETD
Caspase-8, sequence (Q14790 385-479 limits assumed, species assumed): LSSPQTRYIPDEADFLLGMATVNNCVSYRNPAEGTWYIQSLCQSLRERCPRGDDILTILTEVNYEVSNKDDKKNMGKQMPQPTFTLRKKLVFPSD
Cathepsin-L, sequence (P07711 114-333, species assumed): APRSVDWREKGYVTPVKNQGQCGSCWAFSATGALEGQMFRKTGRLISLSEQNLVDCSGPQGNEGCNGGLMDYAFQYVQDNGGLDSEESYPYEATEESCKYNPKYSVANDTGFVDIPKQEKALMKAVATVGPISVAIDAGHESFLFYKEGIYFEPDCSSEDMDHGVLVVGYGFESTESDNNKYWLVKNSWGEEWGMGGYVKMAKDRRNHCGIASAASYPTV
Cathepsin-S, sequence (P25774 115-331, species assumed): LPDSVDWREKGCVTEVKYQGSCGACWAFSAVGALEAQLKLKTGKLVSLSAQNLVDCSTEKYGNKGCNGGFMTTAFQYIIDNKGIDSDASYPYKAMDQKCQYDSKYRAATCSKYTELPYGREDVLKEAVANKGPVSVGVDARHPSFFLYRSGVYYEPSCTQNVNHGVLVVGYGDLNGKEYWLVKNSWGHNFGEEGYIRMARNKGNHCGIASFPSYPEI

## CCN(CC)c1ccc(CN2CCc3nc(C)[nH]c(=O)c3C2)c(OC)c1 [Compound 64]
[1]
  IC50: 2370 nM
[2]
  selectivity for AEP over Cathepsin-L: over 40 fold
[3]
  selectivity for AEP over Cathepsin-S: over 40 fold
[4]
  selectivity for AEP over Caspase-3: about 6 fold
[5]
  selectivity for AEP over Caspase-8: over 40 fold
[6]; 3 μM
  CYP3A4-Midazolam inhibition: 0.6%
[6]; 10 μM
  CYP3A4-Midazolam inhibition: 10.1%
[7]; 3 μM
  CYP3A-Testosterone inhibition: 1.5%
[7]; 10 μM
  CYP3A-Testosterone inhibition: −0.1%
[8]; 3 μM
  CYP2C9 inhibition: 4.6%
[8]; 10 μM
  CYP2C9 inhibition: 7.9%
[9]; 3 μM
  CYP2D6 inhibition: 34.6%
[9]; 10 μM
  CYP2D6 inhibition: 58.3%
[10]; 3 μM
  CYP2C19 inhibition: 31.6%
[10]; 10 μM
  CYP2C19 inhibition: 20.4%
[11]; 3 μM
  CYP1A2 inhibition: 73.7%
[11]; 10 μM
  CYP1A2 inhibition: 22.2%
[12]
  APP cleavage after OGD: blocked
[13]
  A −>B Papp: <LLOQ
  B −> A Papp: <LLOQ
